Data as given in ChEMBL document CHEMBL1148098, “Neosiphoniamolide A, a novel cyclodepsipeptide, with antifungal activity from the marine sponge Neosiphonia superstes” (1995).
≈ marks a conversion by molar mass, not a printed value.

Assays:
Assay type in all cases: functional
Phytophthora cinnamomi = assay: Antifungal activity against Phytophthora cinnamomi assessed as inhibition of mycelium growth
Fusarium = assay: Antifungal activity against Fusarium roseum assessed as inhibition of mycelium growth
Oculimacula yallundae = assay: Antifungal activity against Pseudocercosporella herpotrichoides assessed as inhibition of mycelium growth
Phytopythium vexans = assay: Antifungal activity against Pythium vexans assessed as inhibition of mycelium growth
[1] = test system: Globisporangium rostratum; assay: Antifungal activity against Pythium rostratum assessed as inhibition of mycelium growth
Ustilago nuda = assay: Antifungal activity against Ustilago nuda assessed as inhibition of mycelium growth
[2] = test system: Phytophthora citrophthora; assay: Antifungal activity against Phytophthora citrophthora assessed as inhibition of mycelium growth
Helminthosporium = assay: Antifungal activity against Helminthosporium gramineum assessed as inhibition of mycelium growth
Pyricularia oryzae = assay: Antifungal activity against Pyricularia oryzae assessed as inhibition of mycelium growth
Rhizoctonia solani = assay: Antifungal activity against Rhizoctonia solani assessed as inhibition of mycelium growth
Parastagonospora nodorum = assay: Antifungal activity against Septoria nodorum assessed as inhibition of mycelium growth
Alternaria alternata = assay: Antifungal activity against Alternaria alternata assessed as inhibition of mycelium growth
Botrytis cinerea = assay: Antifungal activity against Botrytis cinerea assessed as inhibition of mycelium growth

| Structure (SMILES) | IC90 (Phytophthora cinnamomi) | IC90 (Fusarium) | IC90 (Oculimacula yallundae) | IC90 (Phytopythium vexans) | IC90 [1] | IC90 (Ustilago nuda) | IC90 [2] | IC90 (Helminthosporium) | IC90 (Pyricularia oryzae) | IC90 (Rhizoctonia solani) | IC90 (Parastagonospora nodorum) | IC90 (Alternaria alternata) | IC90 (Botrytis cinerea) |
| --- | --- | --- | --- | --- | --- | --- | --- | --- | --- | --- | --- | --- | --- |
| C/C1=C\[C@H](C)C[C@H](C)OC(=O)[C@H](C(C)C)NC(=O)[C@@H](Cc2ccc(O)c(I)c2)N(C)C(=O)CNC(=O)[C@@H](C)C1 [NEOSIPHONIAMOLIDE A] | > 5 µg/mL | > 5 µg/mL | > 5 µg/mL | > 5 µg/mL | > 5 µg/mL | > 5 µg/mL | > 5 µg/mL | 5 µg/mL (≈ 7.63 µM) | 5 µg/mL (≈ 7.63 µM) | > 5 µg/mL | > 5 µg/mL | > 5 µg/mL | > 5 µg/mL |
| CO[C@H]1CC2=CC(=O)O[C@@H]([C@H](C)[C@@H](OC)C[C@H](OC)/C=C/[C@H](C)[C@@H](O)C[C@@H](OC)/C=C/[C@H](C)[C@@H]([C@@H](C)[C@@H](OC)[C@@H](C)CCC(=O)[C@H](C)[C@@H](C/C=C/N(C)C=O)OC)OC(=O)/C=C/C=C(/C)C1)[C@H]2O [SPHINXOLIDE B] | < 2 µg/mL | < 2 µg/mL | < 2 µg/mL | < 2 µg/mL | < 2 µg/mL | < 2 µg/mL | < 2 µg/mL | < 2 µg/mL | < 2 µg/mL | < 2 µg/mL | < 2 µg/mL | < 2 µg/mL | < 2 µg/mL |
